Measured values as given in PubChem BioAssay AID330 (DTP/NCI, 2004).
Values joined by “and” are separate entries in the source; they are usually repeats but may differ in a detail not shown here. Equal values may be shown once. Inconclusive results and toxic doses are left out.

Test system: P388 leukemia ip, CD2F1 mice, survival T/C
Test: NCI In Vivo Anticancer Drug Screen. Data for tumor model P388 Leukemia (intraperitoneal) in CD2F1 (CDF1) mice
Settings: endpoint: median survival time, higher = longer survival
Method in brief: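 Mice carrying the transplanted tumor received test compound or vehicle. Survival was recorded in each group, and the value is the treated-group measurement divided by that of the vehicle-treated control group.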

[1] = dose: 50.0 mg/kg/injection, schedule: Q01DX005 (ip), vehicle: saline with Tween-80
[2] = dose: 100.0 mg/kg/injection, schedule: Q01DX005 (ip), vehicle: saline with Tween-80
[3] = dose: 200.0 mg/kg/injection, schedule: Q01DX005 (ip), vehicle: saline with Tween-80
[4] = dose: 12.5 mg/kg/injection, schedule: Q01DX009 (ip), vehicle: saline with Tween-80

For `Cc1ccccc1N=Nc1ccc(N=Nc2cc(CN(C)C)c(O)c3ncccc23)c(C)c1`, the T/C [1] was 102 % of control, the T/C [2] was 95 % of control and the T/C [3] was 109 % of control.

In the case of `CN(C)c1ncnc2c1ncn2C1OC(CO)C(N)C1O` (stereo unspecified), the T/C [4] is reported as 104 % of control, the T/C (dose: 12.5 mg/kg/injection, schedule: Q01DX009 (ip), vehicle: saline) is reported as 118 % of control and the T/C (dose: 25.0 mg/kg/injection, schedule: Q01DX009 (ip), vehicle: saline with Tween-80) is reported as 113 % of control. For the same compound, the T/C (dose: 25.0 mg/kg/injection, schedule: Q01DX009 (ip), vehicle: saline) was 119 % of control, the T/C (dose: 50.0 mg/kg/injection, schedule: Q01DX009 (ip), vehicle: saline) was 117 % of control and the T/C (dose: 75.0 mg/kg/injection, schedule: Q01DX009 (ip), vehicle: saline sonified) was 163 % of control. For the same compound, the T/C (dose: 100.0 mg/kg/injection, schedule: Q04DX003 (ip), vehicle: saline sonified) was 119 % of control, the T/C (dose: 200.0 mg/kg/injection, schedule: Q04DX003 (ip), vehicle: saline sonified) was 109 % of control and the T/C (dose: 400.0 mg/kg/injection, schedule: Q04DX003 (ip), vehicle: saline sonified) was 95 % of control.

With `O=c1[nH]cnc2ncccc12` the T/C (dose: 12.5 mg/kg/injection, schedule: Q01DX009 (ip), vehicle: Klucel (hydroxypropylcellulose) (HPC)) was 104 % of control, the T/C (dose: 25.0 mg/kg/injection, schedule: Q01DX009 (ip), vehicle: Klucel (hydroxypropylcellulose) (HPC)) was 110 % of control and the T/C (dose: 50.0 mg/kg/injection, schedule: Q01DX009 (ip), vehicle: Klucel (hydroxypropylcellulose) (HPC)) was 112 % of control. For the same compound, the T/C (dose: 100.0 mg/kg/injection, schedule: Q01DX009 (ip), vehicle: Klucel (hydroxypropylcellulose) (HPC)) was 87 % of control.

`C[N+](C)(C)c1ccc(Cc2ccc([N+](C)(C)C)cc2)cc1` was tested, and the T/C (dose: 6.3 micrograms/kg/injection, schedule: Q04DX002 (ip), vehicle: saline) was 107 % of control, the T/C (dose: 12.5 micrograms/kg/injection, schedule: Q04DX002 (ip), vehicle: saline) was 111 % of control and the T/C (dose: 25.0 micrograms/kg/injection, schedule: Q04DX002 (ip), vehicle: saline) was 103 % of control.

With `Cc1cc2nc(C=C(C(F)(F)F)C(F)(F)F)oc2cc1C` the T/C (dose: 1.56 mg/kg/injection, schedule: Q01DX009 (ip), vehicle: saline with Tween-80) was 98 % of control, the T/C (dose: 3.13 mg/kg/injection, schedule: Q01DX009 (ip), vehicle: saline with Tween-80) was 98 % of control and the T/C (dose: 6.25 mg/kg/injection, schedule: Q01DX009 (ip), vehicle: saline with Tween-80) was 95 % of control. The T/C [4] was 93 % of control.

In the case of `COc1cccc2c1C(=O)c1c(O)c(CCl)cc(OC)c1C2=O`, the T/C (dose: 7.5 mg/kg/injection, schedule: Q01DX005 (ip), vehicle: saline with Tween-80) is reported as 108 % of control, the T/C (dose: 15.0 mg/kg/injection, schedule: Q01DX005 (ip), vehicle: saline with Tween-80) is reported as 117 % of control and the T/C (dose: 30.0 mg/kg/injection, schedule: Q01DX005 (ip), vehicle: saline with Tween-80) is reported as 114 % of control. The T/C (dose: 60.0 mg/kg/injection, schedule: Q01DX005 (ip), vehicle: saline with Tween-80) was 101 % of control.

In the case of `CCCCOC(=O)CCC(C)=O`, the T/C (dose: 100.0 mg/kg/injection, schedule: Q04DX003 (ip), vehicle: saline with Tween-80) is reported as 100 % of control, the T/C (dose: 200.0 mg/kg/injection, schedule: Q04DX003 (ip), vehicle: saline with Tween-80) is reported as 100 % of control and the T/C (dose: 400.0 mg/kg/injection, schedule: Q04DX003 (ip), vehicle: saline with Tween-80) is reported as 104 % of control.

`COc1cc2c(OC)c(c1)CCCC1=CC(=O)C=C(CCC2)C1=O` was tested, and the T/C [1] was 94 % of control, the T/C (dose: 100.0 mg/kg/injection, schedule: Q01DX001 (ip), vehicle: Klucel (hydroxypropylcellulose) (HPC)) was 92 % of control and the T/C [2] was 103 % of control. For the same compound, the T/C (dose: 200.0 mg/kg/injection, schedule: Q01DX001 (ip), vehicle: Klucel (hydroxypropylcellulose) (HPC)) was 100 % of control, the T/C [3] was 100 % of control and the T/C (dose: 400.0 mg/kg/injection, schedule: Q01DX001 (ip), vehicle: Klucel (hydroxypropylcellulose) (HPC)) was 90 % of control.

For `COc1ccc2c(C)cc(N/N=C(\c3ccccc3)c3ccccn3)nc2c1`, the T/C (dose: 1.56 mg/kg/injection, schedule: Q01DX005 (ip), vehicle: saline with Tween-80) was 107 % of control, the T/C (dose: 3.12 mg/kg/injection, schedule: Q01DX005 (ip), vehicle: saline with Tween-80) was 102 % of control and the T/C (dose: 6.25 mg/kg/injection, schedule: Q01DX005 (ip), vehicle: saline with Tween-80) was 98 % of control and 94 % of control. The T/C [2] was 89 % of control and the T/C [3] was 94 % of control.
